Source: ChEMBL document CHEMBL1201862, “PubChem BioAssay data set” (2004)
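In this assay, cells in 96-well plates receive the compound at five concentrations for 48 hours. Endpoints are linearly interpolated between the surrounding concentrations. GI50 = concentration required for 50% inhibition of growth.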 The source made the active and inactive calls. Cut-off read from the data, not from the text of the source: active = GI50 up to about 1.1 µM and inactive = higher.

Columns and labels:
Test in all cases: DTP human tumour cell line panel, 48 h
SK-OV-3 = tested on: SK-OV-3
HOP-92 = tested on: HOP-92
MOLT-4 = tested on: MOLT-4
HCT-116 = tested on: HCT-116
COLO 205 = tested on: COLO 205
SR = tested on: SR
T47D = tested on: T47D
SN12C = tested on: SN12C
SW-620 = tested on: SW-620
A549 = tested on: A549
CCRF-CEM = tested on: CCRF-CEM
NCI-H522 = tested on: NCI-H522
TK-10 = tested on: TK-10
MCF7 = tested on: MCF7
OVCAR-3 = tested on: OVCAR-3
IGROV-1 = tested on: IGROV-1
RPMI-8226 = tested on: RPMI-8226
SF-539 = tested on: SF-539
SK-MEL-5 = tested on: SK-MEL-5

SMILES	GI50 (SK-OV-3)	GI50 (HOP-92)	GI50 (MOLT-4)	GI50 (HCT-116)	GI50 (COLO 205)	GI50 (SR)	GI50 (T47D)	GI50 (SN12C)	GI50 (SW-620)	GI50 (A549)	GI50 (CCRF-CEM)	GI50 (NCI-H522)	GI50 (TK-10)	GI50 (MCF7)	GI50 (OVCAR-3)	GI50 (IGROV-1)	GI50 (RPMI-8226)	GI50 (SF-539)	GI50 (SK-MEL-5)
C[C@]12CC[C@@H]3c4ccc(O)cc4CC[C@H]3[C@@H]1C/C(=C\c1ccc(C#N)cc1)C2=O	57 µM (inactive)	26.8 µM (inactive)	23.5 µM (inactive)	32.9 µM (inactive)	37.2 µM (inactive)	50 µM (inactive)	46.8 µM (inactive)	68.4 µM (inactive)	24.5 µM (inactive)	30.8 µM (inactive)	34.4 µM (inactive)	17.4 µM (inactive)	34.1 µM (inactive)	45.5 µM (inactive)	21.9 µM (inactive)	46.1 µM (inactive)	13.3 µM (inactive)	36.5 µM (inactive)	19.2 µM (inactive)
COC(=O)c1cc2ccc(O)c(O)c2cn1	27.5 µM (inactive)	12.6 µM (inactive)	3.44 µM (inactive)	15.7 µM (inactive)	18.9 µM (inactive)	4.25 µM (inactive)	> 10 µM (inactive)	9.1 µM (inactive)	16.6 µM (inactive)	23.6 µM (inactive)	1.92 µM (inactive)	21.6 µM (inactive)	20 µM (inactive)	3.56 µM (inactive)	17.1 µM (inactive)	17.5 µM (inactive)	17.1 µM (inactive)	18.7 µM (inactive)	14.2 µM (inactive)
O=C1C(=Cc2ccco2)C(=O)C2CCCCC12 (stereo not given)	> 100 µM (inactive)	> 100 µM (inactive)	> 100 µM (inactive)	> 100 µM (inactive)	> 100 µM (inactive)	> 100 µM (inactive)	> 100 µM (inactive)	> 100 µM (inactive)	> 100 µM (inactive)	> 100 µM (inactive)	> 100 µM (inactive)	> 100 µM (inactive)	> 100 µM (inactive)	> 100 µM (inactive)	> 100 µM (inactive)	> 100 µM (inactive)	> 100 µM (inactive)	> 100 µM (inactive)	> 100 µM (inactive)
CN(CCCCN1CCCC1)CCCN(C)C(=O)Cc1ccc(Cl)c(Cl)c1	33.3 µM (inactive)	4.57 µM (inactive)	8.91 µM (inactive)	13.2 µM (inactive)	11.9 µM (inactive)	3.3 µM (inactive)	21 µM (inactive)	17.5 µM (inactive)	17.7 µM (inactive)	18.7 µM (inactive)	4.74 µM (inactive)	13.1 µM (inactive)	17.7 µM (inactive)	17.4 µM (inactive)	19.1 µM (inactive)	20.2 µM (inactive)	5.85 µM (inactive)	7.38 µM (inactive)	9.98 µM (inactive)
O=c1c2cc(S(=O)(=O)O)ccc2nc(COc2ccc(Oc3ccc(Cl)cc3Cl)cc2)n1-c1ccc(Oc2ccc(Cl)cc2)cc1Cl	22.6 µM (inactive)	12.8 µM (inactive)	10.4 µM (inactive)	20.8 µM (inactive)	17.9 µM (inactive)	15.2 µM (inactive)	33.1 µM (inactive)	17.7 µM (inactive)	21.5 µM (inactive)	19.3 µM (inactive)	27.7 µM (inactive)	20.4 µM (inactive)	22 µM (inactive)	20.7 µM (inactive)	18.3 µM (inactive)	23.1 µM (inactive)	21.1 µM (inactive)	16.7 µM (inactive)	18.6 µM (inactive)
C[C@@H]1C[C@H]2OC(=O)[C@@]3(C)CCC[C@@](C)([C@@H]23)[C@@]1(O)CCc1ccoc1	> 100 µM (inactive)	> 100 µM (inactive)	38 µM (inactive)	> 87.7 µM (inactive)	> 100 µM (inactive)	44.5 µM (inactive)	> 100 µM (inactive)	> 100 µM (inactive)	> 100 µM (inactive)	> 100 µM (inactive)	74.5 µM (inactive)	> 61.8 µM (inactive)	> 100 µM (inactive)	> 80.2 µM (inactive)	> 100 µM (inactive)	> 100 µM (inactive)	45.1 µM (inactive)	> 100 µM (inactive)	40.6 µM (inactive)
CC1(C)CC[C@]2(C(=O)O)CC[C@]3(C)C(=CC[C@@H]4[C@@]5(C)C[C@H](O)[C@H](O)[C@@](C)(CO)C5=CC[C@]43C)[C@@H]2C1	> 100 µM (inactive)	> 100 µM (inactive)	35.6 µM (inactive)	32.5 µM (inactive)	22.5 µM (inactive)	> 100 µM (inactive)	35.8 µM (inactive)	51.9 µM (inactive)	> 100 µM (inactive)	28.8 µM (inactive)	> 100 µM (inactive)	20.2 µM (inactive)	> 100 µM (inactive)	46.7 µM (inactive)	> 100 µM (inactive)	31.1 µM (inactive)	50.5 µM (inactive)	> 100 µM (inactive)	> 100 µM (inactive)
CC(C(=O)c1ccccc1)C(c1ccccc1)N1CCOCC1 (stereo not given)	> 100 µM (inactive)	> 100 µM (inactive)	66.8 µM (inactive)	> 100 µM (inactive)	> 100 µM (inactive)	> 100 µM (inactive)	> 100 µM (inactive)	> 100 µM (inactive)	> 100 µM (inactive)	> 100 µM (inactive)	36.1 µM (inactive)	> 100 µM (inactive)	> 100 µM (inactive)	> 100 µM (inactive)	> 100 µM (inactive)	> 100 µM (inactive)	54.3 µM (inactive)	> 100 µM (inactive)	> 100 µM (inactive)
BrCCC[P+](c1ccccc1)(c1ccccc1)c1ccccc1	83.4 µM (inactive)	8 µM (inactive)	9.66 µM (inactive)	1.64 µM (inactive)	1.61 µM (inactive)	3.83 µM (inactive)	5.85 µM (inactive)	23.1 µM (inactive)	25.5 µM (inactive)	25.6 µM (inactive)	> 30.5 µM (inactive)	3.34 µM (inactive)	80.9 µM (inactive)	6.22 µM (inactive)	3.44 µM (inactive)	5.45 µM (inactive)	0.615 µM (active)	8.47 µM (inactive)	6.27 µM (inactive)
CCOC(=O)c1c(NC(=O)c2cccs2)sc2c1CCCC2	25.5 µM (inactive)	43.3 µM (inactive)	> 100 µM (inactive)	46.9 µM (inactive)	> 100 µM (inactive)	> 80.9 µM (inactive)	30.6 µM (inactive)	> 90.4 µM (inactive)	> 100 µM (inactive)	55.5 µM (inactive)	> 100 µM (inactive)	39.9 µM (inactive)	45.8 µM (inactive)	> 79.6 µM (inactive)	46.3 µM (inactive)	31.3 µM (inactive)	> 100 µM (inactive)	24.4 µM (inactive)	> 100 µM (inactive)
